Experimental findings from ChEMBL document CHEMBL1130093, “Synthesis and nicotinic acetylcholine receptor binding properties of exo-2-(2'-fluoro-5'-pyridinyl)-7-azabicyclo-[2.2.1]heptane: a new positron emission tomography ligand for nicotinic receptors” (J Med Chem, 1997) are described below.

Each structure is given as a SMILES string.

The target in the assay is Neuronal acetylcholine receptor (Rattus norvegicus) (UniProt P04757+P09483+P12389+P12390+P12392+P43144+Q9JLB5+P12391+P43143+P20420+Q05941). In words: Kapp value towards nicotinic acetylcholine receptor was obtained from three to four independent competition binding experiments using [3H]-NCEPB. Format: protein-complex assay.
As for `Clc1ccc(C2CC3CC[C@H]2N3)cn1` (stereo partly drawn), the K app was 0.024 nM.

In turn, `Fc1ccc([C@H]2CC3CCC2N3)cn1` (stereo partly drawn) gave a K app of 0.02 nM. `CN1CCC[C@H]1c1cccnc1` had a K app of 6.2 nM.
